In patent US20120014918A1, “ADDITION SALTS OF AMINES CONTAINING HYDROXYL AND/OR CARBOXYLIC GROUPS WITH AMINO NICOTINIC ACID DERIVATIVES AS DHODH INHIBITORS” (priority 2009, published 2012):
Structures can show the parent of a compound that is named as a salt.

What was measured:
Assay type in all cases: physicochemical
[1] = Water-solubility test; conditions: 25° C. (room temperature), expressed as acid
[2] = Dynamic Vapour Sorption (DVS) profiles; conditions: 25° C.; for Hygroscopicity according to the DVS pattern: sorption 0 to 95% RH and desorption; for Hysteresis in the DVS pattern: sorption/desorption isotherms; for Mass increase at 80% relative humidity: 80% RH; for Mass increase at 90% relative humidity: 90% RH
Method: Dynamic Vapour Sorption (DVS) profiles were obtained using an Igasorp Hiden Isochema instrument (serial number IGA-SA-066). After an initial stabilization period, at least two isotherms (at 25° C.) were obtained for each sample: a moisture sorption from 0 to 95% relative humidity and moisture desorption from 95% relative humidity to dryness. Both isotherms were performed in 10% humidity steps, with a minimum time of 10 minutes and a maximum time of 30 minutes for each step.

[3] = Differential scanning calorimetry (DSC) thermograms; conditions: heated 30 to 350° C. at 10° C./min
Method: The differential scanning calorimetry (DSC) thermograms analyses were obtained using a DSC-821 Mettler-Toledo instrument, serial number 5117423874. Samples were weighed into an aluminium pan, an aluminium lid placed on top of the sample and compressed with a brass rod. Samples were equilibrated at 30° C. and heated at 10° C./min to 350° C. The instrument was calibrated using indium and zinc standards.

Row | Structure (SMILES) | Water Solubility @ 25° C. (mg/mL as acid) [1] [mg/mL] | Hygroscopicity according to the DVS pattern [2] | Stability (no conversion into other polymorphs, no decomposition) from DSC thermogram [3] | Hysteresis in the DVS pattern [2] | Mass increase at 80% relative humidity [2] [%] | Mass increase at 90% relative humidity [2] [%]
1 | Cc1c(-c2ccccc2)cc(F)c(Nc2ncccc2C(=O)O)c1F [Ex. 4, 2-(3,5-difluoro-2-methylbiphenyl-4-ylamino)nicotinic acid, meglumine salt] | 0.210 | not hygroscopic | – | – | – | –
2 | COc1cccc(-c2cc(F)c(Nc3ncccc3C(=O)O)c(F)c2)c1 [Ex. 1, 2-[(3,5-difluoro-3′-methoxy-1,1′-biphenyl-4-yl)amino]nicotinic acid, meglumine salt] | 2.810 | not hygroscopic | high stability | no hysteresis | – | –
3 | Cc1c(-c2ccccc2)cc(F)c(Nc2ncccc2C(=O)O)c1F [C3, 2-[(3,5-difluoro-2-methyl-1,1′-biphenyl-4-yl)amino]nicotinic acid, reference compound] | 0.002 | – | – | – | – | –
4 | COc1cccc(-c2cc(F)c(Nc3ncccc3C(=O)O)c(F)c2)c1 [Ex. 2, 2-[(3,5-difluoro-3′-methoxy-1,1′-biphenyl-4-yl)amino]nicotinic acid, tromethamine salt] | 0.870 | not hygroscopic | high stability | no hysteresis | – | –
5 | COc1cccc(-c2cc(F)c(Nc3ncccc3C(=O)O)c(F)c2)c1 [Ex. 6, 2-[(3,5-difluoro-3′-methoxy-1,1′-biphenyl-4-yl)amino]nicotinic acid, L-arginine salt] | – | – | high stability | – | – | –
6 | CCOc1cccc(-c2ccc(Nc3ncccc3C(=O)O)c(OC(F)(F)F)c2)c1 [C2, 2-{[3′-ethoxy-3-(trifluoromethoxy)-1,1′-biphenyl-4-yl]amino}nicotinic acid, reference compound] | 0.008 | – | – | – | – | –
7 | CCOc1cccc(-c2ccc(Nc3ncccc3C(=O)O)c(OC(F)(F)F)c2)c1 [Ex. 3, 2-(3′-ethoxy-3-(trifluoromethoxy)biphenyl-4-ylamino)nicotinic acid, meglumine salt] | 0.478 | slightly hygroscopic | high stability | no hysteresis | 2.7 | 6.2
8 | Cc1c(-c2ccccc2)cc(F)c(Nc2ncccc2C(=O)O)c1F [Ex. 5, 2-(3,5-difluoro-2-methylbiphenyl-4-ylamino)nicotinic acid, tromethamine salt] | 0.490 | a bit hygroscopic | – | without hysteresis | 5.7 | 14.9
9 | COc1cccc(-c2cc(F)c(Nc3ncccc3C(=O)O)c(F)c2)c1 [C1, 2-[(3,5-difluoro-3′-methoxy-1,1′-biphenyl-4-yl)amino]nicotinic acid, reference compound] | 0.004 | – | – | – | – | –
